Patent US20110306137A1, “METHODS AND COMPOSITIONS FOR MODULATING DIFFERENTIATION OF PLURIPOTENTIAL CELLS” (priority 2007, published 2011)

Experiments:
[1] = test system: MASCs; assay: Adipogenic differentiation of MASCs with clustered Jag1/Fc, DAPT, BMP6; format: cell-based, human
Protocol: MASCs were prepared essentially as described in Example 1. Culture in adipogenic differentiation medium was as described in Example 6. Treatment of cells with Anti-Fc and Clustered Jag1/Fc were as described in Example 7. Fixation, staining with Oil Red O and analysis of adipogenic differentiation were as described in Example 6.

[2] = test system: MASCs; assay: Osteogenic differentiation of MASCs with Notch activation by clustered Jag1/Fc, with or without DAPT; format: cell-based, human; settings: for effect on Jagged stimulation of osteogenesis: 5 μM DAPT
Protocol: MASCs (prepared essentially as described in Example 1) were plated at 10^4 cells/well in 96-well plates in […]MEM (Mediatech, Herndon, Va.) supplemented with 10% Fetal Bovine Serum (FBS, HyClone, Logan Utah) and cultured overnight. The next day, cells were transferred to osteogenic differentiation medium (composition described in Example 5).
During the differentiation procedure, certain batches of cells were subjected to Notch activation via the Notch ligand Jagged. A fusion between the extracellular domain of the rat Jagged1 protein and the Fc region of human IgG (Jag1/Fc) was obtained from R&D Systems (Minneapolis, Minn.; Catalogue No. 599-JG), and the lyophilized preparation was reconstituted to a concentration of 1 mg/ml in PBS containing 0.1% (w/v) bovine serum albumin.
The chimeric Jag1/Fc protein was “clustered” by preincubation with a ten-fold weight excess of goat anti-human Fc (Sigma, St. Louis Mo.). Before use, the antibody solution (2 mg/ml) was dialyzed overnight, with three changes, against PBS to remove sodium azide. The volume of antibody solution was not changed by dialysis. For clustering, Jag1/Fc (1 mg/ml in PBS+0.1% BSA) and anti-human Fc (2 mg/ml in PBS) were mixed and incubated at room temperature for 40 min prior to addition to the cell cultures.
(§1) Clustered Jag1/Fc was added to cultures at a final concentration of 5 μg/ml Jag1/Fc and 50 μg/ml antibody. Control cultures received only the antibody. Additional cultures received Jag1/Fc and anti-Fc as above, along with 5 μM N—[N-(3,5-Difluorophenacetyl)-L-alanyl]-S-phenylglycine t-butyl ester (DAPT), a […]-secretase inhibitor. Stock solutions of 2 mM DAPT in DMSO were obtained from Sigma-Aldrich, St. Louis, Mo. […]-secretase is a protease that, upon activation of transmembrane Notch protein by a Notch ligand, cleaves the Notch protein at a site that allows release of the Notch intracellular domain. Certain cultures also included BMP-6 (final concentration 500 ng/ml), as described in Example 5.
(§2) After 10 days in culture, cells were fixed in methanol, stained with Alizarin Red and examined by microscopy as described in Example 5.

[3] = test system: DRCs; assay: Osteogenic differentiation of DRCs with DAPT; format: cell-based, human; settings: presence of BMP6
Protocol: as §1, §2

[4] = test system: WISP1; assay: RT2 Profiler PCR Array Human Notch Signaling Pathway; format: cell-based; settings: Jag-activated MASCs compared to MASCs
Protocol: (§3) The expression of a number of genes involved in Notch signaling, and in signaling pathways that interact with the Notch pathway (Wnt, Shh), was compared in DRCs and MASCs, using a commercial array (RT^2 Profiler PCR Array Human Notch Signaling Pathway plate, SA Biosciences No. PAHS-059F). The genes that were analyzed are shown in Table 2 (taken from SA Biosciences online Catalogue). Notch pathway members include genes encoding Notch ligands, enzymes that modify the Notch protein and various transcriptional regulatory proteins that control the expression of the Notch pathway members. Notch pathway targets are genes whose expression is either directly or indirectly regulated by Notch activation. Wnt pathway members are Wnt ligands or proteins that participate in WNT-mediated signaling pathways. The Wnt pathway was investigated because of known crosstalk between the Notch and Wnt signaling pathways, and because it is involved in osteogenic differentiation, which is inhibited in DRCs.
(§4) MASCs and DRCs, prepared and frozen as described in Examples 1-3, were thawed (Example 4), grown for 4-7 days in alpha-MEM/10% FBS/pen-strep, then replated into 10-cm Petri dishes at a concentration of 0.5×10^6 cells/dish, in duplicate. After re-plating, cells were grown for 4 days to allow intracellular levels of endogenous NICD, activated by trypsinization, to return to basal. At the end of this period, culture medium was carefully aspirated, the cells were lysed in 400 μl RLT Buffer (Qiagen, Valencia, Calif.), and the lysate was scraped from the plate.
(§5) As a control, MASCs that had been exposed to clustered soluble Jagged1 protein, to activate the Notch signaling pathway (see Example 7), were also analyzed and compared to MASCs.
(§6) The lysate was homogenized using a QiaShredder (Qiagen, Valencia, Calif.). The homogenate was mixed with ethanol, and the mixture was applied to a RNeasy column (Qiagen, Valencia, Calif.) and processed according to the manufacturer's instructions. The eluate was treated with a DNA-Free™ kit (Ambion, Austin, Tex.), according to the manufacturer's protocol, for elimination of genomic DNA.
(§7) RNA concentration and purity was assayed on Nanodrop spectrophotometer (Thermo Scientific, Wilmington, Del.). […]
(§8) cDNA samples, synthesized as described above, were diluted and added to RT^2 SYBR Green qPCR Master Mix (SA Biosciences) according to the manufacturer's recommendations. […] SYBR green fluorescence, normalized to controls also present on the array, is used a s a measure of mRNA level.
(§9) Results were analyzed using analysis tools provided by SA Biosciences, assigning results from MASCs to the “Control” field and DRC results to the “Test” field, to obtain figures for relative changes in expression for the genes assayed. […]

[5] = test system: HR; assay: as above; format: cell-based; settings: Jag-activated MASCs compared to MASCs
Protocol: as §3, §4, §5, §6, §7, §8, §9

[6] = test system: CCND1; assay: as above; format: cell-based; settings: Jag-activated MASCs compared to MASCs; two-fold criteria
Protocol: as §3, §4, §5, §6, §7, §8, §9

[7] = test system: HES1; assay: as above; format: cell-based; settings: Jag-activated MASCs compared to MASCs
Protocol: as §3, §4, §5, §6, §7, §8, §9

[8] = test system: genes involved in Notch signaling; assay: RT2 Profiler PCR Array Human Notch Signaling Pathway, number of genes altered; format: cell-based; settings: Jag-activated MASCs compared to MASCs; 84 genes tested
Protocol: as §3, with “Wnt pathway members are Wnt ligands or proteins that participate in WNT-mediated signaling pathways. The Wnt pathway was investigated because of known crosstalk between the Notch and Wnt signaling pathways, and because it is involved in osteogenic differentiation, which is inhibited in DRCs.” left out
As a control, MASCs that had been exposed to clustered soluble Jagged1 protein, to activate the Notch signaling pathway (see Example 7), were also analyzed and compared to MASCs. […]
as §8, §9

[9] = test system: osteogenic differentiation; assay: Osteogenic differentiation potential assay (Alizarin Red staining); format: cell-based, human; settings: BMP-6 500 ng/ml; MASCs, DRCs, mock DRCs
Protocol: For assay of osteogenic differentiation potential, cells (MASCs, DRCs or mock DRCs) were plated at 10^4 cells/well in 96-well plates in […]MEM (Mediatech, Herndon, Va.) supplemented with 10% Fetal Bovine Serum (FBS, HyClone, Logan Utah) and cultured overnight.
The next day, the culture medium was replaced with DMEM (Mediatech, Herndon, Va.) containing high glucose, pyruvate, glutamine and 10% FBS supplemented with 50 μg/ml Ascorbic acid (L-ascorbic acid 2-phosphate, Wako Chemical, Ltd., Japan, added freshly before use), 10 mM β-glycerophosphate (Sigma-Aldrich, St. Louis, Mo.), and 100 nM Dexamethasone (Sigma-Aldrich, St. Louis, Mo.). This “osteogenic differentiation medium” was changed every 3-4 days.
Osteogenic differentiation assays were conducted in the absence or presence of recombinant human bone morphogenetic protein 6 (BMP-6; R&D Systems, Minneapolis, Minn.), at a concentration of 500 ng/ml.
On day 14 or 17 after the transfer of cells into osteogenic differentiation medium, cultures were assayed for the presence of osteocytes by Alizarin Red staining. Cells were fixed by adding 100% methanol to the wells and incubating on ice for 3 min. The wells were then rinsed with water, and 40 mM alizarin red S (Sigma-Aldrich, St. Louis, Mo.), pH 4.2 was added. […]

[10] = test system: adipogenic differentiation; assay: Adipogenic differentiation potential assay (Oil Red O staining); format: cell-based, human; settings: BMP-6 100 ng/ml; day 17-21
Protocol: For assay of adipogenic differentiation potential, cells were plated at 10^4 cells/well in 96-well plates in […]MEM (Mediatech, Herndon, Va.) supplemented with 10% Fetal Bovine Serum (FBS, HyClone, Logan Utah) and cultured overnight.
The next day, the culture medium was replaced with DMEM (Mediatech, Herndon, Va.) containing high glucose, pyruvate, glutamine and 10% FBS supplemented with 1 μM Dexamethasone, […] 1-methyl-3 isobutylxanthine, 100 μM indomethacin and 10 μg/ml insulin (all supplements from Sigma-Aldrich, St. Louis, Mo.). This “adipogenic differentiation medium” was changed every 3-4 days.
Adipogenic differentiation assays were conducted in the absence or presence of recombinant human bone morphogenetic protein 6 (BMP-6; R&D Systems, Minneapolis, Minn.) at a concentration of 100 ng/ml.
On day 17-21 after transfer of cells into adipogenic differentiation medium, cells were tested for adipocytic differentiation by staining with Oil Red O. Cells were fixed by adding 10% formalin to the wells and incubating for 30-60 min at room temperature. Wells were then washed with 60% isopropanol and allowed to dry completely. Oil Red O working solution was freshly prepared from Oil Red stock solution (3.5 mg/ml in isopropanol) by diluting it 3:2 in water and filtering. Staining was conducted for 10 min; and the wells were then washed extensively with water. […]

C[C@H](NC(=O)Cc1cc(F)cc(F)c1)C(=O)N[C@H](C(=O)OC(C)(C)C)c1ccccc1 [DAPT, N—[N-(3,5-Difluorophenacetyl)-L-alanyl]-S-phenylglycine t-butyl ester]
effect on stimulation of adipogenesis by BMP6 ([1]; DAPT with BMP6): enhanced further
effect on adipogenesis of MASCs ([1]; DAPT, no BMP6): slightly enhanced adipogenesis
effect on Jagged stimulation of osteogenesis ([2]; absence of BMP6): completely reversed
effect on Jagged stimulation of osteogenesis ([2]; presence of BMP6 500 ng/ml): strongly reduced
effect on osteogenic potential exhibited by DRCs [3]: reduced

Jag1/Fc: fusion between the extracellular domain of the rat Jagged1 protein and the Fc region of human IgG, clustered with goat anti-human Fc
expression of Wisp1 [4]: up-regulated
expression of HR [5]: up-regulated
expression of CCND1 (cyclin D1) [6]: not altered
expression of Hes1 [7]: up-regulated
effect on BMP6-enhanced adipogenesis of MASCs ([1]; Jag with BMP6): reversed
effect on adipogenesis of MASCs ([1]; Jag with BMP6 and DAPT): no effect
effect on adipogenesis of MASCs ([1]; clustered Jag1/Fc, absence of DAPT or BMP6): blocked
dose dependence of stimulation of osteogenesis ([2]; additional experiments): dose-dependent
effect on osteogenesis of MASCs (Alizarin Red) ([2]; clustered Jag1/Fc 5 μg/ml, absence or presence of BMP6, 10 days): osteogenesis was strongly enhanced
number of genes with activated expression (two-fold or more) [8]: 18 genes
number of genes with reduced expression (50% or less) [8]: three

B1: BMP-6: recombinant human bone morphogenetic protein 6 (protein, UniProt P22004 375-513, looked up)
Bone morphogenetic protein 6: SASSRRRQQSRNRSTQSQDVARVSSASDYNSSELKTACRKHELYVSFQDLGWQDWIIAPKGYAANYCDGECSFPLNAHMNATNHAIVQTLVHLMNPEYVPKPCCAPTKLNAISVLYFDDNSNVILKKYRNMVVRACGCH
effect of BMP-6 on degree of osteogenic differentiation [9]: increased the degree of osteogenic differentiation
effect on adipogenesis of MASCs ([1]; BMP6 in the differentiation medium): strongly enhanced adipogenesis
effect of BMP-6 on adipocytic differentiation of MASCs [10]: enhanced
